The results in this text go back to PubChem BioAssay AID1259407 (Chemical Carcinogenesis Research Information System (CCRIS), 2018).

The source made the active and inactive calls. No rule for the calls is given here.

The subject of the series is CCRIS mutagenicity, Ames/micronucleus/aberration tests. Nature of the series: CCRIS mutagenicity studies.
[1] abbreviates: Test System: AMES SALMONELLA TYPHIMURIUM, Strain/Indicator: TA98, Metabolic Activation: NONE, Method: STANDARD PLATE.
[2] abbreviates: Test System: AMES SALMONELLA TYPHIMURIUM, Strain/Indicator: TA98, Metabolic Activation: RAT, LIVER, S-9, AROCLOR 1254, Method: STANDARD PLATE.
[3] abbreviates: Test System: AMES SALMONELLA TYPHIMURIUM, Strain/Indicator: TA100, Metabolic Activation: NONE, Method: STANDARD PLATE.
Setting [4] is: Test System: AMES SALMONELLA TYPHIMURIUM, Strain/Indicator: TA100, Metabolic Activation: RAT, LIVER, S-9, AROCLOR 1254, Method: STANDARD PLATE.
The mark [5] stands for this setting: Test System: AMES SALMONELLA TYPHIMURIUM, Strain/Indicator: TA98, Metabolic Activation: NONE.
Setting [6] is: Test System: AMES SALMONELLA TYPHIMURIUM, Strain/Indicator: TA100, Metabolic Activation: NONE.
Setting [7] is: Test System: AMES SALMONELLA TYPHIMURIUM, Strain/Indicator: TA1535, Metabolic Activation: NONE, Method: STANDARD PLATE.
Where [8] appears, read: Test System: E. COLI, Strain/Indicator: WP2 UVRA, Metabolic Activation: NONE, Method: STANDARD PLATE.
[9] abbreviates: Test System: AMES SALMONELLA TYPHIMURIUM, Strain/Indicator: TA1538, Metabolic Activation: NONE, Method: STANDARD PLATE.

As to `CCOC(=O)OCC`, the mutagenic call by setting is: (Test System: AMES SALMONELLA TYPHIMURIUM, Strain/Indicator: TA98, Metabolic Activation: HAMSTER, LIVER, S-9, AROCLOR 1254 (10%), Method: PREINCUBATION) “inactive; negative”; (Test System: AMES SALMONELLA TYPHIMURIUM, Strain/Indicator: TA98, Metabolic Activation: NONE, Method: PREINCUBATION) “inactive; negative”; (Test System: AMES SALMONELLA TYPHIMURIUM, Strain/Indicator: TA98, Metabolic Activation: RAT, LIVER, S-9, AROCLOR 1254 (10%), Method: PREINCUBATION) “inactive; negative”; (Test System: AMES SALMONELLA TYPHIMURIUM, Strain/Indicator: TA100, Metabolic Activation: HAMSTER, LIVER, S-9, AROCLOR 1254 (10%), Method: PREINCUBATION) “inactive; negative”; (Test System: AMES SALMONELLA TYPHIMURIUM, Strain/Indicator: TA100, Metabolic Activation: NONE, Method: PREINCUBATION) “inactive; negative”; (Test System: AMES SALMONELLA TYPHIMURIUM, Strain/Indicator: TA100, Metabolic Activation: RAT, LIVER, S-9, AROCLOR 1254 (10%), Method: PREINCUBATION) “inactive; negative”. Also, the mutagenic call was “inactive; negative” (Test System: AMES SALMONELLA TYPHIMURIUM, Strain/Indicator: TA1535, Metabolic Activation: HAMSTER, LIVER, S-9, AROCLOR 1254 (10%), Method: PREINCUBATION); “inactive; negative” (Test System: AMES SALMONELLA TYPHIMURIUM, Strain/Indicator: TA1535, Metabolic Activation: NONE, Method: PREINCUBATION); “inactive; negative” (Test System: AMES SALMONELLA TYPHIMURIUM, Strain/Indicator: TA1535, Metabolic Activation: RAT, LIVER, S-9, AROCLOR 1254 (10%), Method: PREINCUBATION); “inactive; negative” (Test System: AMES SALMONELLA TYPHIMURIUM, Strain/Indicator: TA1537, Metabolic Activation: HAMSTER, LIVER, S-9, AROCLOR 1254 (10%), Method: PREINCUBATION); “inactive; negative” (Test System: AMES SALMONELLA TYPHIMURIUM, Strain/Indicator: TA1537, Metabolic Activation: NONE, Method: PREINCUBATION); “inactive; negative” (Test System: AMES SALMONELLA TYPHIMURIUM, Strain/Indicator: TA1537, Metabolic Activation: RAT, LIVER, S-9, AROCLOR 1254 (10%), Method: PREINCUBATION).
Take `Fc1cccc2c1ccc1ncccc12`: the mutagenic call (Test System: AMES SALMONELLA TYPHIMURIUM, Strain/Indicator: TA100, Metabolic Activation: RAT, LIVER, S-9, PHENOBARBITAL AND 5,6-BENZOFLAVONE, Method: PREINCUBATION) was “active; positive”.
`COP(=S)(OC)Oc1ccc(N=O)c(C)c1`: the mutagenic call reads like this: under setting [1], “active; positive”; under setting [2], “active; positive”; under setting [3], “active; positive”; under setting [4], “active; positive”.
Take `CC(=O)c1ccc2ccccc2c1`: the mutagenic call runs as follows: (Test System: AMES SALMONELLA TYPHIMURIUM, Strain/Indicator: TA97, Metabolic Activation: NONE, Method: PREINCUBATION) “inactive; negative”; (Test System: AMES SALMONELLA TYPHIMURIUM, Strain/Indicator: TA97, Metabolic Activation: RAT, LIVER, S-9, AROCLOR 1254, Method: PREINCUBATION) “inactive; negative”; (Test System: AMES SALMONELLA TYPHIMURIUM, Strain/Indicator: TA102, Metabolic Activation: NONE, Method: PREINCUBATION) “inactive; negative”; (Test System: AMES SALMONELLA TYPHIMURIUM, Strain/Indicator: TA102, Metabolic Activation: RAT, LIVER, S-9, AROCLOR 1254, Method: PREINCUBATION) “inactive; negative”.
Take `O=C(O)[C@@H]1Cc2c([nH]c3ccccc23)[C@H]([C@H]2CCNC2=S)N1`: the mutagenic call runs as follows: under setting [5], “inactive; negative”; (Test System: AMES SALMONELLA TYPHIMURIUM, Strain/Indicator: TA98, Metabolic Activation: S-9) “inactive; negative”; under setting [6], “inactive; negative”; (Test System: AMES SALMONELLA TYPHIMURIUM, Strain/Indicator: TA100, Metabolic Activation: S-9) “inactive; negative”.
As for `CC(=O)c1ccc(NO)cc1`, the mutagenic call reads like this: under setting [3], “active; positive”; under setting [7], “inactive; negative”; (Test System: E. COLI, Strain/Indicator: WP2 UVRA(P), Metabolic Activation: NONE, Method: STANDARD PLATE) “active; positive”; (Test System: E. COLI, Strain/Indicator: WP2 UVRA, Metabolic Activation: NONE, Method: FLUCTUATION TEST) “inactive; negative”; under setting [8], “active; positive”.
With `CC(=O)Nc1ccc(Sc2ccccc2)cc1`, the mutagenic call under setting [1] is “inactive; negative” and the mutagenic call under setting [2] is “active; positive”.
In the case of `O=C(N[C@@H](Cc1ccc(Cl)cc1)C(=O)O)OCc1ccccc1`, the mutagenic call runs as follows: under setting [5], “inactive; negative”; under setting [6], “active; positive”; (Test System: AMES SALMONELLA TYPHIMURIUM, Strain/Indicator: TA1535, Metabolic Activation: NONE) “inactive; negative”; (Test System: AMES SALMONELLA TYPHIMURIUM, Strain/Indicator: TA1537, Metabolic Activation: NONE) “inactive; negative”; (Test System: B. SUBTILIS, Strain/Indicator: BD190 REC, Metabolic Activation: NONE, Method: SPOT TEST) “active; positive”; (Test System: E. COLI, Strain/Indicator: AB2462 UVRA, Metabolic Activation: NONE, Method: SPOT TEST) “active; positive”. Also, the mutagenic call (Test System: E. COLI, Strain/Indicator: WP6 POLA, Metabolic Activation: NONE, Method: SPOT TEST) is “inactive; negative”.
Turning to `C=Cc1ccncc1`, the mutagenic call was “inactive; negative” under setting [1]; “inactive; negative” under setting [2]; “inactive; negative” under setting [3]; “inactive; negative” under setting [4]; “inactive; negative” under setting [7]; “inactive; negative” (Test System: AMES SALMONELLA TYPHIMURIUM, Strain/Indicator: TA1535, Metabolic Activation: RAT, LIVER, S-9, AROCLOR 1254, Method: STANDARD PLATE). The mutagenic call by setting is: under setting [9], “inactive; negative”; (Test System: AMES SALMONELLA TYPHIMURIUM, Strain/Indicator: TA1538, Metabolic Activation: RAT, LIVER, S-9, AROCLOR 1254, Method: STANDARD PLATE) “inactive; negative”; (Test System: UDS RAT HEPATOCYTES, Strain/Indicator: THY INCORP, Metabolic Activation: NONE) “inactive; negative”.
In the case of `CC(C)NCC(O)COc1cccc2c1OCC(O)C2` (stereo not given), the mutagenic call under setting [1] is “inactive; negative”; the mutagenic call (Test System: AMES SALMONELLA TYPHIMURIUM, Strain/Indicator: TA98, Metabolic Activation: S-9, Method: STANDARD PLATE) is “inactive; negative”; the mutagenic call under setting [3] was “inactive; negative”; the mutagenic call (Test System: AMES SALMONELLA TYPHIMURIUM, Strain/Indicator: TA100, Metabolic Activation: S-9, Method: STANDARD PLATE) was “inactive; negative”; the mutagenic call under setting [7] was “inactive; negative”; the mutagenic call (Test System: AMES SALMONELLA TYPHIMURIUM, Strain/Indicator: TA1535, Metabolic Activation: S-9, Method: STANDARD PLATE) is “inactive; negative”. In addition, the mutagenic call was “inactive; negative” (Test System: AMES SALMONELLA TYPHIMURIUM, Strain/Indicator: TA1537, Metabolic Activation: NONE, Method: STANDARD PLATE); “inactive; negative” (Test System: AMES SALMONELLA TYPHIMURIUM, Strain/Indicator: TA1537, Metabolic Activation: S-9, Method: STANDARD PLATE); “inactive; negative” under setting [9]; “inactive; negative” (Test System: AMES SALMONELLA TYPHIMURIUM, Strain/Indicator: TA1538, Metabolic Activation: S-9, Method: STANDARD PLATE); “inactive; negative” under setting [8]; “inactive; negative” (Test System: E. COLI, Strain/Indicator: WP2 UVRA, Metabolic Activation: S-9, Method: STANDARD PLATE).
